As a reminder, the Papp A→B is how fast a substance crosses the layer from the apical side. High values mean ready permeation, low ones poor permeation. In general, Papp B→A refers to how fast a substance crosses the layer from the basolateral side. The efflux ratio is a quotient of directional permeabilities that is used to spot active efflux.

The text below walks through data of US20250282798A1, “HETEROARYL-SUBSTITUTED BICYCLIC COMPOUND AND USE THEREOF” (Medshine Discovery Inc., priority 2022, published 2025).

Format in all cases: in vitro ADME
The subject of one series is MDR1-MDCK II cell line. The series can be described thus: Permeability evaluation in MDR1-MDCK II cells. On the procedure: (§1) Cell line: The MDR1-MDCK II cell line authorized by Piet Borst's laboratory at the Netherlands Cancer Research Institute was used in this assay as an in vitro model for the permeability evaluation assay. The cells were inoculated in a Transwell-96 well cell plate at a density of 2.3×10^5 cells/cm^2, and cultured in a carbon dioxide incubator for 4-7 days before use in the transport assay.
(§2) The administration concentration of the test sample was 2.00 μM.
(§3) Test direction and number of parallel samples: bidirectional A-B and B-A, 2 parallels
(§4) Transport buffer (TB): HBSS solution containing 10 mM HEPES (pH 7.40±0.05)
(§5) Incubation conditions: 37±1° C., 5% CO2, incubated for 150 minutes
(§6) Control compounds: Nadolol and metoprolol were used as low-permeability and high-permeability control compounds. Digoxin was used as a substrate of P-glycoprotein. The administration concentration of nadolol and metoprolol was 2.00 μM, and the administration concentration of digoxin was 10.0 μM.
(§7) After the transport assay, the integrity of the MDR1-MDCK II cell layer was assayed by the Lucifer Yellow Rejection Assay. The remaining solution in the apical and basolateral wells was removed. 75 μL of TB containing 100 μM Lucifer Yellow was added to the apical well, and 250 μL of TB was added to the basolateral well. The cell plate was incubated in a cell culture incubator at 37±1° C., 5% CO2 and saturated humidity for 30 minutes. Then, 20 μL of sample was taken from the apical well and mixed with 60 μL of TB, and 80 μL of sample was taken from the basolateral well. The relative fluorescence unit (RFU) was measured at 425/528 nm (excitation/emission) using a microplate reader.
(§8) In this assay, the sample analysis of the test samples and control compounds of nadolol, metoprolol, and digoxin was performed by liquid chromatography-tandem mass spectrometry (LC-MS/MS). The retention time of the analytes and internal standards, chromatogram acquisition, and chromatogram integration were processed using the software Analyst (Sciex, Framingham, MA, USA). The sample analysis was semi-quantitatively determined using the peak area of analyte and the peak area of internal standard.
(§9) VR is the volume of the receiver end solution (0.075 mL for side A, and 0.25 mL for side B); Area is the relative surface area of the cell monolayer (0.0804 cm2); Time is the incubation time (9000 s); C0 is the peak area ratio of the compound at the administration end; VD is the volume of the administration end (0.075 mL for side A, and 0.25 mL for side B); CD and CR are the peak area ratios of the compound at the administration end and the receiver end, respectively.

A short description of series [1]: Permeability evaluation in MDR1-MDCK II cells. The conditions noted are these: dog. Here is the method: as §1, §2, §3, §4, §5, §6, §7, §8, §9
The next series concerns MDR1 (P-glycoprotein). The series can be described thus: Permeability evaluation in MDR1-MDCK II cells. The conditions noted are these: dog, pH 7.4, 2.00 μM, 150 minutes. On the procedure: as §1, §2, §3, §4, §5, §6, §7, §8, §9

In the case of `Cn1ccc2c(-c3ncc(Nc4ccc5c(n4)OC[C@@H]4COCCN54)c4c3CNC4=O)ccnc21` [Compound 4], in the series on MDR1-MDCK II cell line (2.00 μM, 150 minutes), the Efflux ratio is on record as 4.97, the “Permeability Papp A to B” value is 5.20 10^−6 cm/s and the “Permeability Papp B to A” value is 25.84 10^−6 cm/s. The “Conclusion of the permeability” value with MDR1-MDCK II cell line (class by Papp) is recorded as “Medium (Medium permeability 1.0 < Papp < 5.5 (×10^−6 cm/s))”.

In the case of `O=C1NCc2c(-c3cnc4cc(F)ccn34)ccc(Nc3ccc4c(n3)OC[C@@H]3COCCN43)c21` [Compound 8], in series [1] (pH 7.4, 2.00 μM, 150 minutes), the Papp A→B at 150 min, 2 μM was found to be 1.97 ×10⁻⁶ cm/s and the Papp B→A at 150 min, 2 μM was 14.2 ×10⁻⁶ cm/s. The Papp at 150 min, 2 μM in series [1] (pH 7.4, class by Papp, read-out: Conclusion of the permeability) lay within 1 to 5.5 ×10⁻⁶ cm/s. The efflux ratio at 150 min, 2 μM in the series on MDR1 (P-glycoprotein) amounted to 7.19.
